Experiments:
[1] = system: THP-1 (AML) cells; assay: LSD1 CD11b Cellular Assay (flow cytometry); format: cell-based; conditions: CD11b expression in THP-1 cells, 4 days incubation
Method: To analyze LSD1 inhibitor efficacy in cells, a CD11b flow cytometry assay was performed. LSD1 inhibition induces CD11b expression in THP-1 (AML) cells which can be measured by flow cytometry. […] LSD1 test compounds were serially diluted in DMSO. The dilutions were added to each well accordingly to a final concentration of 0.2% DMSO. The cells were incubated at 37 degrees Celsius in 5% CO2 for 4 days. 250 μL of each well was transferred to a well in a 96 well round bottom plate. The plate was centrifuged at 1200 rpm at 4 degrees Celsius in a Beckman Coulter Alegra 6KR centrifuge for 5 minutes. The media was removed leaving the cells at the bottom of the wells. The cells were washed in 100 μL cold HBSS (Hank's Balanced Salt Solution) plus 2% BSA (Bovine Serum Albumin) solution and centrifuged at 1200 rpm at 4 degrees Celsius for 5 minutes. The wash was removed. […] The cells were centrifuged and washed two times in 100 μl HBSS plus 2% BSA. After the final spin the cells were resuspended in 100 μL HBSS plus 2% BSA containing 1 ug/mL DAPI (4′,6-diamidino-2-phenylindole). The cells were then analyzed by flow cytometry in a BD FACSAria machine. Cells were analyzed for CD11b expression. The percent of CD11b expressing cells for each inhibitor concentration was used to determine an IC50 curve for each compound analyzed.

[2] = target: full-length human LSD1 (Homo sapiens (Human), UniProt O60341); assay: In Vitro Enzyme Inhibition Assay - LSD-1 (TR-FRET); format: biochemical; conditions: 0.1 nM LSD1, H3K4me1-biotin peptide
Method: This assay determines the ability of a test compound to inhibit LSD1 demethylase activity.
The enzymatic assay of LSD1 activity is based on Time Resolved-Fluorescence Resonance Energy Transfer (TR-FRET) detection.
The ability of the compounds disclosed herein to inhibit LSD1 activity was quantified and the respective IC50 value was determined.

Compound | IC50 ([1]; Homo sapiens, 96 h) [nM] | IC50 [2] [nM] | IC50 [1] [nM]
4-[5-(4-methylphenyl)-1-[[(2R)-morpholin-2-yl]methyl]pyrrolo[3,2-b]pyridin-6-yl]benzonitrile [Example 48] |  |  | > 10000
Cn1ccc2cc(-c3ncc(N4CCC(N)CC4)nc3-c3ccc(C#N)c(F)c3)cnc21 [Example 55, 4-[6-(4-aminopiperidin-1-yl)-3-{1-methyl-1H-pyrrolo[2,3-b]pyridin-5-yl}pyrazin-2-yl]-2-fluorobenzonitrile] | < 100 | < 100 | 
CNC1CCN(c2cnc(-c3cc4ncn(C(C)C)c4cc3F)c(-c3ccc(C#N)c(F)c3)n2)CC1 [Example 67, 2-fluoro-4-[3-(6-fluoro-1-propan-2-ylbenzimidazol-5-yl)-6-[4-(methylamino)piperidin-1-yl]pyrazin-2-yl]benzonitrile] | < 100 | < 100 | 
Cn1nnc2cc(-c3ncc(N4CCC(N)CC4)nc3-c3ccc(C#N)c(F)c3)cnc21 [Example 54, 4-[6-(4-aminopiperidin-1-yl)-3-{3-methyl-3H-[1,2,3]triazolo[4,5-b]pyridin-6-yl}pyrazin-2-yl]-2-fluorobenzonitrile] | < 100 | < 100 | 
CNC1CCN(c2cnc(C#CC3(O)CCCC3)c(-c3ccc(C#N)c(F)c3)n2)CC1 [Example 64, 2-fluoro-4-[3-[2-(1-hydroxycyclopentyl)ethynyl]-6-[4-(methylamino)piperidin-1-yl]pyrazin-2-yl]benzonitrile] | < 100 | < 100 | 
CNC1CCN(c2cnc(-c3ccc4c(c3)nnn4C)c(-c3ccc(C#N)c(F)c3)n2)CC1 [Example 56, 2-fluoro-4-{6-[4-(methylamino)piperidyl]-3-(1-methylbenzotriazol-5-yl)pyrazin-2-yl}benzenecarbonitrile] | < 100 | < 100 | 
CC(C)n1cnc2cc(-c3ncc(N4CCC(N)CC4)nc3-c3ccc(C#N)c(F)c3)ccc21 [Example 72, 4-[6-(4-aminopiperidin-1-yl)-3-(1-propan-2-ylbenzimidazol-5-yl)pyrazin-2-yl]-2-fluorobenzonitrile] | < 100 | < 100 | 
CNC1CCN(c2cnc(-c3ccc4nn(C)cc4c3)c(-c3ccc(C#N)c(F)c3)n2)CC1 [Example 50, 2-fluoro-4-[3-(2-methyl-2H-indazol-5-yl)-6-[4-(methylamino)piperidin-1-yl]pyrazin-2-yl]benzonitrile] | < 100 | < 100 | 
Cn1nnc2cc(-c3ncc(N4CCC(N)CC4)nc3-c3ccc(C#N)c(F)c3)ccc21 [Example 53, 4-[6-(4-aminopiperidin-1-yl)-3-(1-methyl-1H-1,2,3-benzotriazol-5-yl)pyrazin-2-yl]-2-fluorobenzonitrile] | < 100 | < 100 | 
CNC1CCN(c2cnc(-c3ccc4c(c3)ncn4C(C)C)c(-c3ccc(C#N)c(F)c3)n2)CC1 [Example 68, 2-fluoro-4-[6-[4-(methylamino)piperidin-1-yl]-3-(1-propan-2-ylbenzimidazol-5-yl)pyrazin-2-yl]benzonitrile] | < 100 | < 100 | 
CNC1CCN(c2cnc(-c3cnc4c(cnn4C)c3)c(-c3ccc(C#N)c(F)c3)n2)CC1 [Example 59, 2-fluoro-4-{6-[4-(methylamino)piperidyl]-3-(1-methylpyrazolo[5,4-b]pyridin-5-yl)pyrazin-2-yl}benzenecarbonitrile] | < 100 | < 100 | 
CN(C)C1CCN(c2cnc(-c3ccc4nn(C)cc4c3)c(-c3ccc(C#N)c(F)c3)n2)CC1 [Example 60, 4-{6-[4-(dimethylamino)piperidyl]-3-(2-methyl(2H-indazol-5-yl))pyrazin-2-yl}-2-fluorobenzenecarbonitrile] | < 100 | < 100 | 
CCn1cnc2cc(-c3ncc(N4CCC(NC)CC4)nc3-c3ccc(C#N)c(F)c3)c(F)cc21 [Example 69, 4-[3-(1-ethyl-6-fluorobenzimidazol-5-yl)-6-[4-(methylamino)piperidin-1-yl]pyrazin-2-yl]-2-fluorobenzonitrile] | < 100 | < 100 | 
Cc1ccc(-c2cc(NCC3CCNC3)nn2-c2ccc(C#N)cc2)cc1 (centres unmarked) [Example 43, 4-[5-(4-methylphenyl)-3-(pyrrolidin-3-ylmethylamino)pyrazol-1-yl]benzonitrile] |  | < 100 | 
N#Cc1ccc(-c2nc(NC[C@H]3CCNC3)ncc2-c2ccc(Cl)cc2)cc1 [Example 19, 4-[5-(4-chlorophenyl)-2-{[(3S)-pyrrolidin-3-ylmethyl]amino}pyrimidin-4-yl]benzonitrile] |  | < 100 | 
N#Cc1ccc(-c2nc(NC[C@H]3CCNC3)ncc2C#CC2CC2)cc1 [Example 26, 4-[5-(2-cyclopropylethynyl)-2-{[(3S)-pyrrolidin-3-ylmethyl]amino}pyrimidin-4-yl]benzonitrile] |  | < 100 | 
Cc1ccc(-c2nc3ccn(C[C@H]4CCNC4)c3cc2-c2ccc(C#N)cc2)cc1 [Example 3, 4-[5-(4-methylphenyl)-1-[[(3S)-pyrrolidin-3-yl]methyl]pyrrolo[3,2-b]pyridin-6-yl]benzonitrile] |  | < 100 | 
Cc1ccc(-c2cnc(NC[C@H]3CCNC3)nc2-c2ccc(C#N)cc2)cc1 [Example 16, 4-[5-(4-methylphenyl)-2-{[(3S)-pyrrolidin-3-ylmethyl]amino}pyrimidin-4-yl]benzonitrile] |  | < 100 | 
Cc1ccc(-c2cnc(N3C[C@H]4CNC[C@H]4C3)nc2-c2ccc(C#N)cc2)cc1 [Example 21, 4-{2-[(3aR,6aS)-octahydropyrrolo[3,4-c]pyrrol-2-yl]-5-(4-methylphenyl)pyrimidin-4-yl}benzonitrile] |  | < 100 | 

The next lines start with results.

IC50 ([1]; Homo sapiens, 96 h) [nM] | IC50 [2] [nM] | Compound | IC50 [1] [nM]
< 100 | < 100 | CNC1CCN(c2cnc(-c3cnc(N(C)C)nc3)c(-c3ccc(C#N)c(F)c3)n2)CC1 [Example 58, 4-{3-[2-(dimethylamino)pyrimidin-5-yl]-6-[4-(methylamino)piperidyl]pyrazin-2-yl}-2-fluorobenzenecarbonitrile] | 
< 100 | < 100 | CC(C)n1cnc2cc(-c3ncc(N4CCC(N)CC4)nc3-c3ccc(C#N)c(F)c3)c(F)cc21 [Example 70, 4-[6-(4-aminopiperidin-1-yl)-3-(6-fluoro-1-propan-2-ylbenzimidazol-5-yl)pyrazin-2-yl]-2-fluorobenzonitrile] | 
< 100 | < 100 | Cn1cc2ccc(-c3ncc(N4CCC(N)CC4)nc3-c3ccc(C#N)c(F)c3)cc2n1 [Example 52, 4-[6-(4-aminopiperidin-1-yl)-3-(2-methyl-2H-indazol-6-yl)pyrazin-2-yl]-2-fluorobenzonitrile] | 
< 100 | < 100 | CNC1CCN(c2cnc(-c3cc4ncn(C)c4cc3F)c(-c3ccc(C#N)c(F)c3)n2)CC1 [Example 61, 2-fluoro-4-[3-(6-fluoro-1-methylbenzimidazol-5-yl)-6-[4-(methylamino)piperidin-1-yl]pyrazin-2-yl]benzonitrile] | 
< 100 | < 100 | Cn1ncc2cc(-c3ncc(N4CCC(N)CC4)nc3-c3ccc(C#N)c(F)c3)ccc21 [Example 51, 4-[6-(4-aminopiperidin-1-yl)-3-(1-methyl-1H-indazol-5-yl)pyrazin-2-yl]-2-fluorobenzonitrile] | 
< 100 | < 100 | CCn1cnc2cc(-c3ncc(N4CCC(N)CC4)nc3-c3ccc(C#N)c(F)c3)c(F)c(F)c21 [Example 74, 4-[6-(4-aminopiperidin-1-yl)-3-(1-ethyl-6,7-difluorobenzimidazol-5-yl)pyrazin-2-yl]-2-fluorobenzonitrile] | 
< 100 | < 100 | CNC1CCN(c2cnc(-c3ccc(N(C)C)nc3)c(-c3ccc(C#N)c(F)c3)n2)CC1 [Example 57, 4-{3-[6-(dimethylamino)(3-pyridyl)]-6-[4-(methylamino)piperidyl]pyrazin-2-yl}-2-fluorobenzenecarbonitrile] | 
< 100 | < 100 | CCn1cnc2cc(-c3ncc(N4CCC(N)CC4)nc3-c3ccc(C#N)c(F)c3)c(F)cc21 [Example 71, 4-[6-(4-aminopiperidin-1-yl)-3-(1-ethyl-6-fluorobenzimidazol-5-yl)pyrazin-2-yl]-2-fluorobenzonitrile] | 
< 100 | < 100 | CC(C)n1cnc2cc(-c3ncc(N4CCC(N)CC4)nc3-c3ccc(C#N)c(F)c3)c(F)c(F)c21 [Example 73, 4-[6-(4-aminopiperidin-1-yl)-3-(6,7-difluoro-1-propan-2-ylbenzimidazol-5-yl)pyrazin-2-yl]-2-fluorobenzonitrile] | 
< 100 | < 100 | CNC1CCN(c2cnc(-c3ccc(OC)c(F)c3)c(-c3ccc(C#N)c(F)c3)n2)CC1 [Example 63] | 
< 100 | < 100 | CNC1CCN(c2cnc(-c3cc4ncn(C)c4c(F)c3F)c(-c3ccc(C#N)c(F)c3)n2)CC1 [Example 62, 4-[3-(6,7-difluoro-1-methylbenzimidazol-5-yl)-6-[4-(methylamino)piperidin-1-yl]pyrazin-2-yl]-2-fluorobenzonitrile] | 
